Results from patent US11802120B2, “Fused cyclic urea derivatives as CRHR2 antagonist” (RaQualia Pharma Inc., priority 2018, dated 2023).

Molecular target: T1, human CRHR2-alpha (Homo sapiens, UniProt Q13324)
T1 sequence (Q13324 1-411): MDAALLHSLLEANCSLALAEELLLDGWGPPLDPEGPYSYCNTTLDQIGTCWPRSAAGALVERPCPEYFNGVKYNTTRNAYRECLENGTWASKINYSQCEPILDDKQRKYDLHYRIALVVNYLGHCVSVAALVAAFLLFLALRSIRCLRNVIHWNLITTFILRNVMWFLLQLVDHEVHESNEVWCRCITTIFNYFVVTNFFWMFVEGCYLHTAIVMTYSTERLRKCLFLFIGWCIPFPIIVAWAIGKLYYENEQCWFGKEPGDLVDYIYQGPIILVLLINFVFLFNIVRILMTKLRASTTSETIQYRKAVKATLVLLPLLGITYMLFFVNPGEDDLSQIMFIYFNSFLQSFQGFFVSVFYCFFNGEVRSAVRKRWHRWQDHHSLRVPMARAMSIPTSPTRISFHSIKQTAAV
Experiment: cAMP functional assay for human CRHR2 (LANCE Ultra cAMP, TR-FRET)
Assay type: cell-based
Conditions: CHO-K1 cells expressing human CRHR2-alpha, agonist human urocortin2 at EC80, cAMP; read-out: IC50 against CRHR2
How it was run: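 CHO-K1 stable lines; 4,000 cells/well; compound 30 min, 25° C; EC80 agonist (human urocortin2 → CRHR2, CRF → CRHR1) 30 min, 25° C; buffer HBSS/0.1% BSA/0.5 mM IBMX/5 mM Hepes pH 7.4; Eu-cAMP tracer + ULight antibody 60 min; TR-FRET read; IC50 from % inhibition curves.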

SMILES: CC(C)(O)C(=O)Nc1ccc(-n2c(=O)n(C[C@H]3CC[C@H](NC(=O)c4cc(Cl)cnc4C(F)F)CC3)c3ccccc32)cn1 [Example 669, 5-chloro-2-(difluoromethyl)-N-((1r,4r)-4-((3-(6-(2-hydroxy-2-methylpropana-mido)pyridin-3-yl)-2-oxo-2,3-dihydro-1H-benzo[d]imidazol-1-yl)methyl)cyclo-hexyl)nicotinamide]
- IC50: < 0.3 µM

SMILES: C[C@H](O)C(=O)Nc1ccc(-n2c(=O)n(C[C@H]3CC[C@H](NC(=O)c4cc(Cl)cnc4C(F)F)CC3)c3ccccc32)cn1 [Example 671, 5-chloro-2-(difluoromethyl)-N-((1S,4r)-4-((3-(6-((S)-2-hydroxypropanamido)pyridin-3-yl)-2-oxo-2,3-dihydro-1H-benzo[d]imidazol-1-yl)methyl)cyclohexyl)nicotinamide]
- IC50: < 0.3 µM

SMILES: CNc1ccc(-n2c(=O)n(C[C@H]3CC[C@H](NC(=O)c4cc(Cl)cnc4C(F)F)CC3)c3c(F)cccc32)cn1 [Example 672, 5-chloro-2-(difluoromethyl)-N-((1r,4r)-4-((7-fluoro-3-(6-(methylamino)pyridin-3-yl)-2-oxo-2,3-dihydro-1H-benzo [d]imidazol-1-yl)methyl)cyclo-hexyl)nicotinamide]
- IC50: < 0.3 µM

SMILES: Cc1cc2cc(-n3c(=O)n(C[C@H]4CC[C@H](NC(=O)c5cc(Cl)cnc5C(F)F)CC4)c4ccccc43)cnc2[nH]1 [Example 673, 5-chloro-2-(difluoromethyl)-N-((1r,4r)-4-((3-(2-methyl-1H-pyrrolo[2,3-b]pyridin-5-yl)-2-oxo-2,3-dihydro-1H-benzo[d]imidazol-1-yl)methyl)cyclohexyl)nicotinamide]
- IC50: < 0.3 µM

SMILES: Cc1cc2cc(-n3c(=O)n(C[C@H]4CC[C@H](NC(=O)c5cc(Cl)cnc5C(F)F)CC4)c4ccccc43)cnc2n1C [Example 674, 5-chloro-2-(difluoromethyl)-N-((1r,4r)-4-((3-(1,2-dimethyl-1H-pyrrolo[2,3-b]pyridin-5-yl)-2-oxo-2,3-dihydro-1H-benzo[d]imidazol-1-yl)methyl)cyclohexyl)nicotinamide]
- IC50: < 0.3 µM

SMILES: COc1ccc(Cl)c(-n2c(=O)n(C[C@H]3CC[C@H](NC(=O)c4cc(Cl)cnc4C(F)F)CC3)c3ncccc32)c1 [Example 675, 5-chloro-N-((1r,4r)-4-((1-(2-chloro-5-methoxyphenyl)-2-oxo-1H-imidazo[4,5-b]pyridin-3(2H)-yl)methyl)cyclohexyl)-2-(difluoro-methyl)nicotinamide]
- IC50: < 0.3 µM

SMILES: O=C(N[C@H]1CC[C@H](Cn2c(=O)n(-c3cc(F)ccc3Cl)c3cccnc32)CC1)c1cc(Cl)cnc1C(F)F [Example 676, 5-chloro-N-((1r,4r)-4-((1-(2-chloro-5-fluorophenyl)-2-oxo-1H-imidazo[4,5-b]pyridin-3(2H)-yl)methyl)cyclohexyl)-2-(difluoro-methyl)nicotinamide]
- IC50: < 0.3 µM

SMILES: Cc1ncc(Cl)cc1C(=O)N[C@H]1CC[C@H](Cn2c(=O)n(-c3cccc(-c4cnn(C)c4)c3)c3ccccc32)CC1 [Example 678, 5-chloro-2-methyl-N-((1r,4r)-4-((3-(3-(1-methyl-1H-pyrazol-4-yl)phenyl)-2-oxo-2,3-dihydro-1H-benzo[d]imidazol-1-yl)methyl)cyclohexyl)nicotinamide]
- IC50: < 0.3 µM

SMILES: Cc1ncc(Cl)cc1C(=O)N[C@H]1CC[C@H](Cn2c(=O)n(-c3cncc(-c4cnn(C)c4)c3)c3ccccc32)CC1 [Example 679, 5-chloro-2-methyl-N-((1r,4r)-4-((3-(5-(1-methyl-1H-pyrazol-4-yl)pyridin-3-yl)-2-oxo-2,3-dihydro-1H-benzo[d]imidazol-1-yl)methyl)cyclohexyl) nicotinamide]
- IC50: < 0.3 µM

SMILES: Cc1ncc(Cl)cc1C(=O)N[C@H]1CC[C@H](Cn2c(=O)n(-c3ccnc(-c4cnn(C)c4)c3)c3ccccc32)CC1 [Example 680, 5-chloro-2-methyl-N-((1r,4r)-4-((3-(2-(1-methyl-1H-pyrazol-4-yl)pyridin-4-yl)-2-oxo-2,3-dihydro-1H-benzo[d]imidazol-1-yl)methyl)cyclohexyl) nicotinamide]
- IC50: < 0.3 µM
